Among the data in patent US11597722B2, “Crystal form D of pyrazine-2(1H)-ketone compound and preparation method therefor” (ZHANGZHOU PIEN TZE HUANG PHARMACEUTICAL CO., LTD., priority 2019, dated 2023) are Tlast values, retold here.

This series is described as follows: Pharmacokinetics in mice, single gavage. Type of series: in vivo, CD-1 mouse (male). The following applies: CD-1 mouse, 300 mpk, plasma. The protocol:
Experimental purpose: To test the pharmacokinetics of the compound in mice
CD-1 mouse (male), vehicle (0.5% (w/v) methylcellulose 0.5% (v/v) Tween 80 aqueous solution), trifluoroacetate of compound 0027.
The vehicle was an aqueous solution of 0.5% (w/v) methylcellulose and 0.5% (v/v) Tween 80, and it was prepared according to the following procedure:
Formulation of preparations for intragastric administration: […]
a. An appropriate amount of the test product was weighed and put into a glass bottle;
b. 70% volume of vehicle (0.5% (w/v) methyl cellulose 0.5% (v/v) Tween 80 aqueous solution) was added;
c. The preparation was stirred until it was visually homogeneous, and subjected to ultrasound in water bath as needed;
e. Make up the remaining volume of 0.5% methylcellulose+0.5% Tween 80, and the mixture was stirred until being visually homogeneous.
Animals in groups 1 and 2 were administrated 5 mg/mL and 30 mg/mL compounds by single gavage, with a dose volume of 10 mL/kg.
The body weight of the animals was weighed before administration, and the administration volume was calculated based on the body weight.
Whole blood samples (30 μL) were collected at the prescribed time (0.25, 0.5, 1, 2, 4, 6, 8, 24 h) through saphenous vein blood collection, and the actual blood collection time was recorded in the test record. […]

Structures are written as SMILES.

As for `COc1cc(OC)c(Cl)c(-c2nc(-c3nc(-c4cn(C)nc4C)cnc3N)cn(C)c2=O)c1`, the Tlast came to 24.0 h.
